{"source": "patent US20250319100A1", "about": "“ANTI-TUMOR COMBINED PREPARATION COMPRISING HYDROXYPROGESTERONE CAPROATE AND USE THEREOF” (SHENZHEN EVERGREEN THERAPEUTICS CO., LTD., priority 2021, published 2025)", "key": {"[1]": {"system": "CD8+ T cells in tumor tissue", "assay": "Infiltration of CD8+ T cells in tumor tissue (CD8 staining of paraffin tumor sections)", "format": "in vivo, Balb/c mice", "details": "FIGS. 2 and 3, CD8 staining density IOD/area, p<0.01 OHPC group vs control group", "protocol": "FIG. 2 illustrates the infiltration of CD8 T cells in mouse tumors post-administration (400× magnification). FIG. 3 presents the analysis of CD8 staining density on tumor sections after administration, represented in integrated optical density (IOD)/area, where ** denotes p<0.01 compared between the OHPC group and the control group. At the conclusion of the experiment, tumor tissue was embedded in paraffin, sectioned, and stained for CD markers. This was conducted to compare the infiltration of CD8+ T cells within tumors across different groups."}, "4T1-hPD-L1 cells": {"system": "4T1-hPD-L1 cells", "assay": "Tumor growth inhibition in Balb/c mice subcutaneously inoculated with 4T1 cells overexpressing human PD-L1", "format": "in vivo", "details": "for Tumor growth inhibition (result in words): FIG. 1, tumor volume growth trend post-administration", "protocol": "Antibody Anti-PD-L1 was purchased from Rongchang Biopharmaceuticals (Yantai) Co., Ltd., batch number: RC98-1-A20170426, with a storage solution concentration of 6.87 mg/ml, dissolved in 0.9% sodium chloride solution. Prior to each administration, the Anti-PD-L1 was prepared by diluting it in 0.9% sodium chloride solution to obtain a concentration of 1 mg/ml.\nHydroxyprogesterone Caproate (OHPC) was purchased from Hongyan Pharmaceutical and Chemical Co., Ltd., as a powder. Prior to each administration, OHPC powder was dissolved in DMSO. Once fully dissolved, it was diluted in sesame oil to obtain an OHPC concentration of 4 mg/ml for the investigational drug solution.\nMurine breast cancer 4T1 cells were purchased from Beijing Biosynthgene Biotech Co., Ltd. Cells were cultured at 37° C. and 5% CO2 in DMEM culture medium containing 10% inactivated fetal bovine serum. The 4T1 cells were genetically modified using conventional methods to overexpress human PD-L1, and these cells were named 4T1-hPD-1.\nFemale Balb/c mice (6-9 weeks old, weighing 16-22 g), SPF grade, were subcutaneously inoculated with 5×10^4 cells/0.1 ml concentration of 4T1-hPD-1 cells suspended in PBS at a volume of 0.1 ml on the right side. When the average tumor volume reached approximately 100 mm3, appropriate mice were selected based on tumor volume and weight and were evenly distributed into four experimental groups, each with 8 mice. Drug administration commenced on the same day as outlined in the table below:\nThroughout the observation period, tumor volume and animal weight were measured weekly, and the values were recorded. Upon completion of the observation period, the experiment was concluded.\nMeasurements of tumor volume were conducted twice a week post-grouping using a vernier caliper. Prior to euthanasia, tumor dimensions including the longest and shortest diameters were measured. The formula used to calculate tumor volume: Tumor Volume=0.5×Longest Diameter×Shortest Diameter^2.\nTi represents the mean tumor volume of the treatment group on day i of drug administration, TO denotes the mean tumor volume of the treatment group on day 0 of drug administration. Vi stands for the mean tumor volume of the solvent control group on day i of drug administration, and VO indicates the mean tumor volume of the solvent control group on day 0 of drug administration.\nOriginal data from observations and measurements were recorded. Analysis and processing were based on this raw data. Results were expressed as Mean±Standard Error of Mean (SEM). Statistical analysis was performed on tumor volume data, where P<0.05 was considered statistically significant. Analysis was conducted considering both statistical and biological significance."}}}
{"smiles": "CCCCCC(=O)O[C@]1(C(C)=O)CC[C@H]2[C@@H]3CCC4=CC(=O)CC[C@]4(C)[C@H]3CC[C@@]21C", "note": "[OHPC, 17α-Hydroxyprogesterone caproate]", "values": [{"measurement": "Infiltration of CD8+ T cells in tumor tissue (result in words)", "setting": "[1]", "result": "significantly enhances the infiltration of CD8+ T cells"}, {"measurement": "Infiltration of CD8+ T cells in tumor tissue (result in words)", "setting": "[1]; listed as Hydroxyprogesterone Caproate (OHPC)", "result": "notably enhanced the infiltration of CD8+ T cells"}, {"measurement": "Tumor Volume Day 17", "setting": "4T1-hPD-L1 cells; Day 17, Anti-PD-L1 10 mg/kg intravenous and/or OHPC 20 mg/kg intramuscular, twice per week, Mean ± Standard Error", "result": "1203 ± 384", "unit": "mm^3"}, {"measurement": "TGITV (tumor growth inhibition rate by tumor volume)", "setting": "4T1-hPD-L1 cells; Day 17 versus vehicle (PBS) control, Anti-PD-L1 10 mg/kg intravenous and/or OHPC 20 mg/kg intramuscular, twice per week", "result": "−14", "unit": "%"}, {"measurement": "Tumor growth inhibition (result in words)", "setting": "4T1-hPD-L1 cells", "result": "no inhibitory effect"}, {"measurement": "Tumor growth inhibition (result in words)", "setting": "4T1-hPD-L1 cells; listed as hydroxyprogesterone caproate", "result": "augments the anti-tumor activity of the monoclonal antibody Anti-PD-L1"}, {"measurement": "Tumor Volume Pre-administration", "setting": "4T1-hPD-L1 cells; baseline before first dose, Mean ± Standard Error, 8 mice per group", "result": "87 ± 24", "unit": "mm^3"}]}
